Legend:
[1] = test system: Baby Spinach (bSP) (RNA, aptamer) GGUGAAGGACGGGUCCAGUAGUUCGCUACUGUUGAGUAGAGUGUGAGCUCC; assay: fluorescence titration, 1:1 model; conditions: 50 mM KCl, 5 mM MgCl2; 10 mM HEPES pH 7.5, 2 µM DFHBI, flow-cell; apparent (one-site model)
[2] = test system: Baby Spinach (bSP) (RNA, aptamer) GGUGAAGGACGGGUCCAGUAGUUCGCUACUGUUGAGUAGAGUGUGAGCUCC; assay: fluorescence titration plus absorption spectra, multiple-site model; conditions: 50 mM KCl, 5 mM MgCl2; 10 mM HEPES pH 7.5, 2 µM DFHBI, flow-cell; site 1 of 2 (fluorescent complex); derived as K x p, p = 1.8

What does the source list for `CC1=N/C(=C\c2cc(F)c(O)c(F)c2)C(=O)N1C`?
Kd [1]: 4.4 µM; Kd [2]: 7.9 ± 0.2 µM

— article PMC8016939 (2021)
